Source: ChEMBL document CHEMBL1155087, “Discovery of novel hydroxy-thiazoles as HIF-alpha prolyl hydroxylase inhibitors: SAR, synthesis, and modeling evaluation” (Bioorg Med Chem Lett, 2008)

Biological target: Egl nine homolog 1 (Homo sapiens, UniProt Q9GZT9)
Assay: Inhibition of human PHD2 assessed as hydroxylation of Pro564 in human HIF-1alpha by TR-FRET assay

Chain of Egl nine homolog 1 (Q9GZT9 whole entry): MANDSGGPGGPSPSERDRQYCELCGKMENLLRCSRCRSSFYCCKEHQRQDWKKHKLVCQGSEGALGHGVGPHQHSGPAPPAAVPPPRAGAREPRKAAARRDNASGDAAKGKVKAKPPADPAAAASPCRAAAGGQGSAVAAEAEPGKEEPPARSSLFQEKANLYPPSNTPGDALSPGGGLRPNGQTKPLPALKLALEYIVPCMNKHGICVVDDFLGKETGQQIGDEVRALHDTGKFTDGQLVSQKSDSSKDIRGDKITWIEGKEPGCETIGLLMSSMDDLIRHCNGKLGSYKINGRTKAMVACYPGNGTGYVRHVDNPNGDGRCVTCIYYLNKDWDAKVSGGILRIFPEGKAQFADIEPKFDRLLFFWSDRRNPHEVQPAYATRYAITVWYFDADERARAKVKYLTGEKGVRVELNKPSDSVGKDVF

IC50 [µM]	Compound
> 40	O=C(O)Cc1cs/c(=N/C(=O)CCc2ccccc2)n1O
> 40	O=C(O)Cc1csc(NC(=O)CS(=O)(=O)c2ccccc2)n1
> 40	CCOC(=O)Cc1cs/c(=N/C(=O)CS(=O)(=O)c2ccccc2)n1O
> 40	CCOC(=O)Cc1csc(NC(=O)CS(=O)(=O)c2ccccc2)n1
> 40	CC(C)(C(=O)O)c1cs/c(=N/C(=O)CS(=O)(=O)c2ccccc2)n1O
